Drawing on PubChem BioAssay (NCI), this text covers GI50 and TGI for nine compounds.

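Five compound concentrations were applied to cells in 96-well plates for 48 hours; endpoints were derived by simple linear interpolation of the resulting dose-response curve. GI50: concentration for 50% inhibition of growth. TGI marks complete inhibition of growth.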

Test systems include M14 melanoma; HCT-15 colon; NCI-H23 lung; HT29 colon; TK-10 renal; A549 NSCLC; SK-MEL-2 melanoma; SR leukemia; IGROV1 ovarian; SK-MEL-28 melanoma.
Holding throughout (assay): growth of human tumour cells (NCI), 48 h

As to `CCCC(C)c1cc(Cc2cc(Cl)cc(Cl)c2O)c(O)c(Cc2cc(Cl)cc(Cl)c2O)c1` (configuration not stated), the GI50 in the assay with M14 melanoma is 1.63 µM; with HCT-15 colon, 0.336 µM; in the assay with NCI-H23 lung, 0.789 µM; in the assay on HT29 colon, 2.83 µM; in the assay with TK-10 renal it was 2.3 µM; in the assay with A549 NSCLC, 2.19 µM. Also, the GI50 in the assay on SK-MEL-2 melanoma was 1.76 µM; with SR leukemia, 0.249 µM; in the assay with IGROV1 ovarian it was 2.73 µM; in the assay on SK-MEL-28 melanoma, 1.19 µM. Moreover, the TGI in the assay on M14 melanoma came out at 7.46 µM; in the assay on HCT-15 colon, 2.44 µM; in the assay on NCI-H23 lung it was 9.64 µM; in the assay on HT29 colon, 11.2 µM; in the assay with TK-10 renal it was 11.8 µM; in the assay on A549 NSCLC it was 12.5 µM. In addition, the TGI amounted to 4.77 µM in the assay on SK-MEL-2 melanoma, 11 µM in the assay on SR leukemia, 14.5 µM in the assay with IGROV1 ovarian and 10.1 µM in the assay on SK-MEL-28 melanoma.

`C/C(=N\NS(=O)(=O)c1ccccc1)c1ccc(Cl)c(Cl)c1`: the TGI in the assay with M14 melanoma, with HCT-15 colon, in the assay on NCI-H23 lung, with HT29 colon, in the assay with TK-10 renal and in the assay with A549 NSCLC was > 100 µM throughout. Also, the TGI with SK-MEL-2 melanoma, with SR leukemia, in the assay on IGROV1 ovarian and in the assay on SK-MEL-28 melanoma was > 100 µM throughout.

`COc1ccc(/C=C2\CCCC3=C2N=C2SC(C)=NN2C3c2ccc(OC)c(OC)c2)cc1OC` (configuration not stated): the GI50 is 5.73 µM in the assay on M14 melanoma; 3.49 µM in the assay on HCT-15 colon; 8.2 µM in the assay on NCI-H23 lung; 11.1 µM in the assay on HT29 colon; 5.99 µM in the assay with TK-10 renal; 31.8 µM in the assay with A549 NSCLC. Further, the GI50 in the assay on SK-MEL-2 melanoma is 22.2 µM; in the assay on SR leukemia, 3.66 µM; in the assay with IGROV1 ovarian, 18.4 µM; with SK-MEL-28 melanoma, 8.92 µM. Also, the TGI in the assay with M14 melanoma was > 100 µM; in the assay on HCT-15 colon, 19.4 µM; with NCI-H23 lung, > 100 µM; in the assay with HT29 colon, 90.1 µM; with TK-10 renal it was 51.2 µM; with A549 NSCLC it was > 100 µM. Also, the TGI is 97.1 µM with SK-MEL-2 melanoma, > 100 µM in the assay on SR leukemia, 93.8 µM in the assay with IGROV1 ovarian and > 100 µM in the assay on SK-MEL-28 melanoma.

Regarding `CCCNC1=C(C(=O)OCC)C(=O)CO1`, the TGI in the assay with M14 melanoma, in the assay on HCT-15 colon, in the assay with NCI-H23 lung, in the assay on HT29 colon, in the assay with TK-10 renal and in the assay on A549 NSCLC was > 100 µM each time. Also, the TGI in the assay with SK-MEL-2 melanoma, in the assay on SR leukemia, with IGROV1 ovarian and in the assay on SK-MEL-28 melanoma was > 100 µM throughout.

Consider `COC(=O)C(=O)C1(CCC(C)=O)c2ccccc2-c2c(C)ccc(C)c21` (configuration not stated), for which the TGI in the assay with M14 melanoma, in the assay on HCT-15 colon, in the assay with NCI-H23 lung, in the assay on HT29 colon, with TK-10 renal and with A549 NSCLC was > 100 µM throughout. Moreover, the TGI with SK-MEL-2 melanoma was > 100 µM; in the assay with SR leukemia, 61.5 µM; with IGROV1 ovarian, > 100 µM; with SK-MEL-28 melanoma, > 100 µM.

As for `O=C(NCCO)Nc1ccc(-c2nc(N3CCOCC3)c3cccn3n2)cc1`, the GI50 is 0.189 µM with M14 melanoma; 0.359 µM in the assay on HCT-15 colon; 0.239 µM with NCI-H23 lung; 0.496 µM in the assay with HT29 colon; 0.0935 µM in the assay with TK-10 renal; 2.07 µM in the assay with A549 NSCLC. For the same compound, the GI50 in the assay with SK-MEL-2 melanoma is 0.256 µM; in the assay on SR leukemia, 0.232 µM; with IGROV1 ovarian it was 0.167 µM; in the assay with SK-MEL-28 melanoma, 0.108 µM. Also, the TGI with M14 melanoma is > 65.5 µM; with HCT-15 colon it was > 100 µM; with NCI-H23 lung, > 100 µM; in the assay with HT29 colon, > 100 µM; in the assay with TK-10 renal it was 2.64 µM; in the assay on A549 NSCLC it was 18.3 µM. Besides, the TGI was 5.09 µM in the assay with SK-MEL-2 melanoma, > 100 µM with SR leukemia, 1.08 µM in the assay with IGROV1 ovarian and 4.59 µM with SK-MEL-28 melanoma.

`O=C(/C=C/c1ccccc1)c1cc(Br)ccc1O`: the TGI with M14 melanoma was found to be 52.9 µM; with HCT-15 colon, 34.9 µM; in the assay with NCI-H23 lung, 31.4 µM; in the assay with HT29 colon it was 31 µM; in the assay on TK-10 renal it was 31.6 µM; with A549 NSCLC it was 52.2 µM. Further, the TGI with SK-MEL-2 melanoma was determined as 40.6 µM; with SR leukemia, 12.3 µM; with IGROV1 ovarian it was 25 µM; with SK-MEL-28 melanoma, 31.5 µM.

`CC1=C(Oc2ccccc2)C(CCC(=O)O)c2c(O)cc(Cl)c(O)c21` (configuration not stated): the TGI in the assay on M14 melanoma, in the assay with HCT-15 colon, in the assay on NCI-H23 lung, in the assay on TK-10 renal, in the assay on A549 NSCLC and in the assay on SK-MEL-2 melanoma was > 100 µM in each case. For the same compound, the TGI in the assay with SR leukemia, in the assay with IGROV1 ovarian and in the assay with SK-MEL-28 melanoma was > 100 µM each time.

Regarding `CCOC(=O)c1cc(NS(=O)(=O)c2ccccc2)cc(C(=O)OCC)c1`, the GI50 in the assay on HCT-15 colon, with NCI-H23 lung, in the assay with HT29 colon, in the assay on TK-10 renal, in the assay with A549 NSCLC and in the assay with SK-MEL-2 melanoma was > 100 µM each time. For the same compound, the GI50 in the assay on SR leukemia, in the assay on IGROV1 ovarian and in the assay on SK-MEL-28 melanoma was > 100 µM throughout. Further, the TGI with HCT-15 colon, in the assay with NCI-H23 lung, in the assay on HT29 colon, in the assay with TK-10 renal, in the assay with A549 NSCLC and with SK-MEL-2 melanoma was > 100 µM in each case. Further, the TGI with SR leukemia, in the assay on IGROV1 ovarian and in the assay on SK-MEL-28 melanoma was > 100 µM in each case.
